Data taken from US6525054B1, “Cyanoiminoquinoxaline derivatives” (Shionogi & Co., Ltd., priority 1998, dated 2003).
Counter-ions that a name gives are not always drawn.

What was measured:
[1] = biological target: AMPA receptor; assay: Receptor affinity: [3H]AMPA binding to rat cerebral cortex membrane fraction; design: species or system Slc-Wistar rat; details: 30 nM [3H]AMPA, 0° C. 30 min
Method: (§1) As to 2-cyanoimino-1,4-dihydro-7-(1,4-dihydro-4-oxo-1-pyridyl)-6-nitro-3-quinoxaline monosodium salt (hereinafter referred to as compound 2(2)) obtained in Example 2(2), the affinity for the AMPA receptor and glycine-binding site of the NMDA receptor was determined as follows.
Cerebral cortex of Slc-Wistar rat (body weight: 250˜300 g) was homogenized with 10 times volume of 30 mM Tris-acetate buffer (pH 7.1) containing 2.5 mM CaCl2, then the mixture was centrifugalized (30,000×g, 15 min) and re-suspended (×3 times). The resultant suspension was restored at −80° C. until use. The froze suspension was thawed at room temperature and suspended into 30 mM Tris-acetate buffer (pH 7.1) containing 2.5 mM CaCl2 and 100 mM KSCN, to give a membrane fraction. The membrane fraction was incubated with 30 nM [^3H]AMPA and a test compound of various concentrations at 0° C. for 30 min. The mixture was diluted and collected by filtration with Whatman GF/C filter to terminate the reaction, then the radioactivity of ^3H remained on the filter was determined with a liquid scintillation counter. The non-specific binding was determined using 1 mM non-radioactive glutamate to calculate the IC50 value.

[2] = system: kidney; assay: Nephrotoxicity; type: in vivo; details: 100 mg/kg i.v. bolus, SD rat, 24 hr later
Method: Compound 2(2) was intravenously administered by a bolus of 100 mg/kg to SD rat (9-10 weeks), which was killed 24 hr later. The both-side kidneys were immediately extracted from the rat. After measuring the weight, one kidney was embedded in paraffin to give a tissue preparation. The other kidney was homogenized, then the extract was subjected to liquid chromatography to determine the concentration of compound 2(2).

[3] = system: cerebral infarction; assay: Inhibition effect on cerebral infarction (MCA occlusion/reperfusion); type: in vivo, Slc-Wistar rat; details: 24 hr of reperfusion
Description: As to compound 2(2), the inhibition effect on cerebral infarction was examined. […] Briefly the animals were anesthetized with halothane (FLUOTHANE, Takeda Chemical Industries Ltd.). After median incision of the neck skin, the right external carotid artery (ECA) was carefully dissected. A coated nylon thread (#4-0, 17.5 mm, Nitcho Kogyo Co. Ltd.) was inserted from the lumen of the ECA to the right internal carotid artery to occlude the origin of the right middle cerebral artery. After surgery, anesthesia was immediately discontinued. […] After 1 hr of MCA occlusion, the thread was removed to allow reperfusion under halothane anesthesia. Body temperature was maintained at 37° C. with a heating pad during ischemic and reperfusion surgery.
The test compound was administered from 15 min after reperfusion for 1 hr by continuous infusion via a catheter (Clay Adams; PE-20) inserted into the femoral vein in a volume of 4 ml/kg/hr.
After 24 hr of reperfusion following 1 hr of MCA occlusion, rat was perfused with physiological saline containing heparin under pentobarbital anesthesia and the brain were removed after decapitation. The brain was cut into 12 coronal sections at 1 mm intervals using tissue chopper (McLWAIN) and immersed in saline containing 2% 2,3,5-triphenyltetrazolium-Cl (Wako Pure Chemical Industries, Ltd.) for 15 min. The stained brain sections were fixed by 10% formalin neutral buffered solution and infarct areas were quantified by an image analyzer system (OPTIMAS, Ver6.0) following scanning (Scantouch210, Nikon).

[4] = biological target: T1, glycine-binding site of NMDA receptor complex (Rattus norvegicus, UniProt P35439); assay: Receptor affinity: [3H]glycine binding to rat cerebral cortex membrane fraction; design: species or system Slc-Wistar rat; details: 100 nM [3H]glycine, 0° C. 10 min
T1 construct: from tissue; host or cells: rat cerebral cortex membrane fraction (Triton X-100 treated)
Method: as §1
Cerebral cortex of Slc-Wistar rat (body weight: 250˜300 g) was homogenized with 20 times volume of 5 mM Tris-acetate buffer (pH 7.4) containing 1 mM EGTA, 0.1 mM PMSF and 0.01% bacitracin […] and re-suspended (×4 times). The resultant suspension was restored at −80° C. until use. The froze suspension was thawed at room temperature and incubated at 2° C. in 0.08% triton X-100 solution for 10 min, then the mixture was washed 2 times and suspended into 50 mM Tris-acetate buffer (pH 7.4), to give a membrane fraction. The membrane fraction was incubated with 100 nM [^3H]glycine and a test compound of various concentrations at 0° C. for 10 min. The mixture was diluted and collected by filtration with Whatman GF/C paper to terminate the reaction, then the radioactivity of ^3H remained on the filter was determined with a liquid scintillation counter. The non-specific binding was determined using 1 mM non-radioactive glycine to calculate the IC50 value.

[5] = system: AMPA-induced seizure; assay: Anticonvulsant effect on AMPA-induced seizure; type: in vivo, Slc-ddY mouse; details: iv; mouse, i.v. 1 min before AMPA 2 nmol/5 μL i.c.v., observed 15 min, Probit method
Method: The anticonvulsant effect of compound 2(2) on AMPA-induced seizure was determined. According to the method described in J. T. Haley and W. G. McCormich, Br. J. Pharmacol. 12, 12-15(1957), AMPA 2 nmol/5 μL was intracerebroventricular administered to the cerebral ventricle of Slc-ddY mouse (4-5 weeks, male). The test compound, in a volume of 0.1 mL /10 g, was intravenously administered 1 min before the AMPA administration. The convulsion was examined by observing and checking, for 15 min from the AMPA administration, the reveal of jumping, wild-running, […] convulsion and tonic convulsion, then the ED50 value was calculated by Probit method.

## N#CN=c1[nH]c2cc(-n3ccc(=O)cc3)c([N+](=O)[O-])cc2[nH]c1=O [compound 2(2), 2-cyanoimino-1,4-dihydro-7-(1,4-dihydro-4-oxo-1-pyridyl)-6-nitro-3-quinoxaline monosodium salt]
[1]
  IC50: 0.034 µM
[2]
  Kidney tissue pathology: no pathological unusual
  Weight of the kidney compared to the vehicle group: has not changed
[2]; kidney homogenate
  Concentration of compound in the kidney (liquid chromatography): not detected
[3]; 0.3 mg/kg/h i.v. infusion for 1 hr from 15 min after reperfusion
  Infarct area at cerebral cortex (% of saline, mean ± standard error): 79.55 ± 13.99 % of saline
[3]; 1 mg/kg/h i.v. infusion for 1 hr from 15 min after reperfusion
  Infarct area at cerebral cortex (% of saline, mean ± standard error): 55.99 ± 11.77 % of saline
[3]; 3 mg/kg/h i.v. infusion for 1 hr from 15 min after reperfusion
  Infarct area at cerebral cortex (% of saline, mean ± standard error): 50.34 ± 10.14 % of saline
[3]; 10 mg/kg/h i.v. infusion for 1 hr from 15 min after reperfusion
  Infarct area at cerebral cortex (% of saline, mean ± standard error): 46.71 ± 15.24 % of saline
[4]
  IC50: 7.5 µM
[5]
  ED50: 6.9 mg/kg
